Assay results taken from patent US12661335B2, “Halogenated xanthene-containing topical anti-gram-positive bacterial ophthalmic composition and method” (Provectus Pharmatech, Inc., priority 2021, dated 2026).
≈ marks a conversion by molar mass, not a printed value. Read-outs that look alike come from different tables or passages of the source.

Experiments:
Mycobacterial spp. = assay: Killing concentrations for five Mycobacterial spp.; assay type: cell-based, Mycobacterium spp.
Method: Antibacterial activity of RB against 5 Mycobacterium spp. Was examined (entries 25-29). […] RB inhibited growth of Saccharomyces cerevisiae at higher concentrations than the bacteria under the dark condition (entry 30).
RB kills Mycobacterial spp. At 12.5-25.0 mg/mL in illumination conditions, and at 25.0-50.0 mg/mL in dark conditions (Table 1). In both conditions, RB kills five Mycobacterial spp. At a slower rate than that of Gram-positive bacteria. RB seems to have low-permeability of mycobacterial cell walls. Due to rapid bactericidal effect of RB against Gram-positive bacteria even in the dark condition, generation of RB-resistant mutants of Gram-positive bacteria is an extremely difficult task.

[1] = tested on: Streptococcus salivarius subsp. Salivarius 7073 ™; assay: MIC, broth dilution method, dark condition; assay type: cell-based
[2] = tested on: Staphylococcus aureus subsp. Aureus BAA-41 ™ (a MRSA strain); assay: MIC, broth dilution method, dark condition; assay type: cell-based; settings: Table 1 entry 6, 24 h
[3] = tested on: Mycobacterium kansasii 824 ™; assay: MIC, broth dilution method, dark condition; assay type: cell-based; settings: Table 1 entry 27, 24 h
[4] = tested on: biofilms of S. aureus 6508™; assay: Biofilm eradication assay; assay type: cell-based, Staphylococcus aureus; settings: for viable bacteria in biofilm: dark condition
Method: 62:394-399 (2013)], and was used as a control.
Linezolid was applied as a positive control at very high concentration of 600 μg/mL (>100×MIC for the planktonic cells) in biofilm assays reported by Kurosu et al., Molecules 27:322 (2022).

[5] = tested on: Staphylococcus epidermidis 35984 ™; assay: MIC, broth dilution method, dark condition; assay type: cell-based
Gram-negative bacteria = assay: Susceptibility of Gram-negative bacteria, dark condition; assay type: cell-based
Text: (§1) Under the dark condition RB is known to display antibacterial activity at high concentrations.

[6] = tested on: biofilms of drug-resistant S. aureus 71080 (VRS8); assay: Biofilm eradication assay; assay type: cell-based, Staphylococcus aureus; settings: fluorescent and dark conditions; concentration-dependent
Text: Linezolid is not an effective drug in eradicating biofilms of Gram-positive bacteria, but has a beneficial effect in prevention of biofilm formations [Reiter et al., J. Med. Microbiol. 62:394-399 (2013)], and was used as a control.
We confirm that RB is an excellent agent to eradicate biofilms of Gram-positive bacteria, including drug-resistant strains. […] These studies indicate that RB has the potential antibacterial agent to kill drug-resistant bacteria in any growth phases.

[7] = tested on: Bacillus subtilis ATCC6051; assay: MIC, broth dilution method, dark condition; assay type: cell-based; settings: Table 1 entry 1, 24 h
Bacillus cereus 13061 ™ [8] = assay: MIC, agar dilution method; assay type: cell-based; settings: Table 2 entry 2, dark
Text: (§2) The MIC values of RB determined by the agar dilution method differed from those determined by the broth dilution method (Table 1). Selected examples of the MIC values determined by the agar dilution method are summarized in Table 2 shown by renumbering the assayed microbes.

[9] = tested on: Staphylococcus aureus subsp. Aureus BAA-44 ™ (a MRSA strain); assay: MIC, agar dilution method; assay type: cell-based; settings: Table 2 fourth entry (printed 1), dark
Text: as §2

[10] = tested on: Bacillus subtilis ATCC6051; assay: MIC, agar dilution method; assay type: cell-based; settings: Table 2 entry 1, dark
Text: as §2

[11] = tested on: Mycobacterium smegmatis 607 ™; assay: MIC, agar dilution method; assay type: cell-based; settings: Mycolicibacterium smegmatis, Table 2 entry 5, dark
Text: as §2

[12] = tested on: Staphylococcus aureus 6538 ™; assay: MIC, agar dilution method; assay type: cell-based; settings: Table 2 entry 3, dark
Text: as §2

[13] = tested on: progressive infectious keratitis; settings: cited from earlier work
[14] = concentrations below 2.0%; cited from earlier work
[15] = tested on: Staphylococcus aureus BAA-2313 ™ (a MRSA strain); assay: MIC, broth dilution method, dark condition; assay type: cell-based; settings: Table 1 entry 10, 24 h
[16] = tested on: Staphylococcus aureus strain AIS 1000505 (VRS10, a vancomycin-resistant strain); assay: MIC, broth dilution method, dark condition; assay type: cell-based; settings: Table 1 entry 14, 24 h
[17] = tested on: Enterococcus faecalis 19433 ™; assay: MIC, broth dilution method, dark condition; assay type: cell-based; settings: Table 1 entry 17, 24 h
C. albicans = settings: three days of incubation, cited from earlier work
[18] = tested on: Staphylococcus aureus subsp. Aureus BAA-2094 ™ (a MRSA strain); assay: MIC, broth dilution method, dark condition; assay type: cell-based; settings: Table 1 entry 9, 24 h
Bacillus cereus 13061 ™ [19] = assay: MIC, broth dilution method, dark condition; assay type: cell-based; settings: Table 1 entry 3, 24 h
Gram-positive bacteria = assay: MIC summary for Gram-positive bacteria, broth dilution; assay type: cell-based
Text: as §1
Provectus has established a manufacturing and purification process for pharmaceutical-grade RB that fulfills both cGMP and ICH requirements. We have evaluated the antibacterial activity and cytotoxicity of a pharmaceutical-grade RB formulated product (PV-10®) as an exemplary RB compound in illuminating and dark conditions.

[20] = tested on: patient-isolated methicillin-resistant Staphylococcus aureus (MRSA); settings: cited from earlier work
[21] = tested on: Staphylococcus aureus 6538 ™; assay: MIC, broth dilution method, dark condition; assay type: cell-based; settings: Table 1 entry 4, 24 h
[22] = tested on: Mycobacterium avium subsp. Avium 2285; assay: MIC, broth dilution method, dark condition; assay type: cell-based; settings: Table 1 entry 26, 24 h

SMILES: O=C(O)c1c(Cl)c(Cl)c(Cl)c(Cl)c1-c1c2cc(I)c(=O)c(I)c-2oc2c(I)c(O)c(I)cc12 [RB, 4,5,6,7-tetrachloro-2′,4′,5′,7′-tetraiodofluorescein]
- concentration at which RB kills Mycobacterial spp. (Mycobacterial spp.; dark conditions): 25.0 to 50.0 mg/mL
- concentration at which RB kills Mycobacterial spp. (Mycobacterial spp.; illumination conditions): 12.5 to 25.0 mg/mL
- MIC ([1]; Streptococcus salivarius, Table 1 entry 23, broth dilution, dark, 24 h): 25 µg/mL (≈ 25.7 µM)
- susceptibility to RB ([1]; entry 23): susceptible
- MIC [2]: 25 µg/mL (≈ 25.7 µM)
- MIC [3]: 50 µg/mL (≈ 51.4 µM)
- viable bacteria in biofilm ([4]; RB 50.0 μg/mL (2×MIC under dark)): significantly reduced the number of viable bacteria
- viable bacteria in biofilm ([4]; RB 1,000 μg/mL): No viable bacteria
- biofilm eradication, log reduction ([4]; under the fluorescent light, RB 30.0 μg/mL (38×MIC)): 7 log reduction
- MIC ([5]; Staphylococcus epidermidis, Table 1 entry 16, broth dilution, dark, 24 h): 25 µg/mL (≈ 25.7 µM)
- killing by RB ([5]; aerobic condition, entry 16): effectively killed
- susceptibility of Gram-negative bacteria to RB (Gram-negative bacteria): not susceptible
- viable cells in biofilm [6]: significantly reduced
- MIC [7]: 50 µg/mL (≈ 51.4 µM)
- MIC (Bacillus cereus 13061 ™ [8]): 125 µg/mL (≈ 128 µM)
- MIC [9]: 50 µg/mL (≈ 51.4 µM)
- MIC [10]: 125 µg/mL (≈ 128 µM)
- MIC [11]: 50 µg/mL (≈ 51.4 µM)
- MIC [12]: 25 µg/mL (≈ 25.7 µM)
- Successful RB-PDAT (avoidance of therapeutic keratoplasty), share of cases ([13]; 0.1 or 0.2% RB on de-epithelized corneas 30 minutes, then 5.4 J/cm^2 green LED light 15 minutes, 18 patients unresponsive to standard therapy): 72%
- average time to clinical resolution after RB-PDAT ([13]; 0.1 or 0.2% RB, 5.4 J/cm^2 green LED light): 46.9 ± 26.4 days
- safety of RB under natural and artificial lights [14]: considered to be safe
- MIC [15]: 25 µg/mL (≈ 25.7 µM)
- MIC [16]: 25 µg/mL (≈ 25.7 µM)
- MIC [17]: 25 µg/mL (≈ 25.7 µM)
- Day 3 Growth Inhibition Percentage, RB + 518 nm Irradiation (C. albicans; 518 nm, 5.4 J/cm^2): 95.6 ± 3 Percentage
- Day 3 Growth Inhibition Percentage, RB Only (C. albicans; dark, no irradiation): 42.2 ± 3.7 Percentage
- MIC [18]: 25 µg/mL (≈ 25.7 µM)
- MIC (Bacillus cereus 13061 ™ [19]): 50 µg/mL (≈ 51.4 µM)
- concentration showing antibacterial activity against all Gram-positive bacteria of entries 1-23 (Gram-positive bacteria; dark condition, Table 1): 25.0 to 100 µg/mL
- MIC (Gram-positive bacteria; saline-diluted PV-10, except Streptococcus pneumoniae sp., lighting not given, read-out: MIC against most Gram-positive bacteria): 0.39 to 3.1 µg/mL (≈ 0.401 to 3.18 µM)
- growth inhibition of MRSA strain 1 ([20]; RB 0.03% in dark conditions): incomplete inhibition
- growth inhibition of MRSA strain 2 ([20]; RB 0.03% in dark conditions): complete inhibition
- growth inhibition of both MRSA strains ([20]; RB 0.1% in the dark): Complete growth inhibition
- growth inhibition of both MRSA strains ([20]; RB 0.1 and 0.03%, ambient room light or green LED irradiation (5.4 J/cm^2)): Complete growth inhibition
- MIC [21]: 50 µg/mL (≈ 51.4 µM)
- MIC [22]: 50 µg/mL (≈ 51.4 µM)
